The text below walks through data of patent US12629388B2, “Intradialytic use of sodium nitrite” (Hope Medical Enterprises, Inc., priority 2017, dated 2026).

The conditions of series [1]: mixed dialysate exiting Fresenius 2008K hemodialysis machine; expected 1.46 mg/L. As to the method:
(§1) Concentration of nitrite in samples was assayed by ion chromatography. The ion chromatograph was equipped with a conductivity detector, self-regenerating suppression system, eluent generator, and a Dionex IonPacAS19 analytical column. The nitrite concentration in the samples was measured and calculated against an external sodium nitrite standard. USP Sodium Nitrite Reference Standard (Item Number 1614454) was the testing standard (United States Pharmacopeia. Rockville, Maryland).
The machine was primed in bypass mode (dialysate and ultrafiltration rates set at zero) using normal saline.

For series [2] the following is noted: pre-mixed 1 L dialysate, pH 7.32 at 24.4° C. after addition; expected 2.997 mg/L. As to the method: as §1
For series [3] the following is noted: dialysate bicarbonate concentrate; for Nitrite Concentration by Assay: room temperature, expected 38.1 mg/L. As to the method: as §1
Example 2 was performed to determine the stability of sodium nitrite in dialysate bicarbonate concentrate solution. At room temperature, 300 mg sodium nitrite was added to 7,700 mL of dialysate bicarbonate concentrate solution. The nitrite concentration of the dialysate bicarbonate concentrate solution was analyzed by ion chromatography 1) before addition of sodium nitrite; 2) 5 minutes after the addition of sodium nitrite; and 3) 2 hours after the addition of sodium nitrite.

For series [4] the following is noted: during the first hour of hemodialysis; cited from earlier work.
The conditions of series [5]: for Nitrite Concentration After Addition of Sodium Nitrite (Time = 60 Min): average of two samples. As to the method: as §1
Dialysate bicarbonate concentrate solution was prepared by adding 1 package of Centrisol® MB-330 Series Sodium Bicarbonate Concentrate powder (650 g) to 7.7 liters of purified water.
The hemodialysis machine mixed the bicarbonate concentrate solution and acid concentrate solution with the dilution ratio of 1 part of an acid concentrate solution, 1.72 parts of a bicarbonate concentrate solution, and 42.38 parts of purified water. The machine was primed in bypass mode (dialysate and ultrafiltration rates set at zero) using normal saline. After priming, the hemodialysis machine was run in “Therapy Mode” with the following settings: blood flow rate 300 ml/minute, dialysate flow rate 600 mL/minute, ultrafiltration rate 0 mL/minute.
An aqueous solution of sodium nitrite was prepared by dissolving 3 mg of sodium nitrite in 1 liter of purified water. […] This valve was placed in the dialysate tubing approximately eight inches upstream of the dialyzer (pre-filter). Two sampling ports were placed four inches upstream (pre-dialyzer sampling port) and ten inches downstream (post-dialyzer sampling port) from the dialyzer to collect samples of dialysate for […] assay by ion chromatography.
The infusion pump infused the sodium nitrite solution into the tubing through the valve at a rate of 250 mL/hour (4.16 mL/minute).
Normal saline flowed into the dialyzer at a rate of 300 mL/minute from the Arterial line and exited the dialyzer through the Venous line. Samples of saline were collected from the venous side of the dialyzer.

How the values of series [6] were obtained:
Example 1 was performed to determine the stability of sodium nitrite in aqueous solution when acid is added. A 100 mL sample of sodium nitrite solution with a concentration of 30 mg/mL was tested for the presence of nitrogen oxide gases (NO, NO2, N2O3, and N2O4) using an Orion Model 95-46 Nitrogen Oxide (NOx) electrode and a pH meter. With constant stirring, the mV reading with the NOx electrode and pH reading with the pH electrode were recorded after successive additions of 100 μL of either 0.02 N or 1 N hydrochloric acid.

Structures are written as SMILES. Read-outs that look alike come from different tables or passages of the source.

On to `O=NO` [Sodium Nitrite, sodium nitrite], for which the “Nitrite Concentration by Assay” value was “None” in series [1], 1.149 mg/L in series [2], 38.0 mg/L in series [3] (5 minutes after addition) and 38.5 mg/L in series [3] (2 hours after addition). Further, the “Nitrate Concentration” value in series [3] (5 minutes after addition) and in series [3] (2 hours after addition) was “None” each time. Further, the “decline of the concentration of nitrite in the plasma” value in series [4] was “over 60%”. Also, the “Nitrite Concentration After Addition of Sodium Nitrite (Time = 60 Min)” value was determined as 235 nM in series [5] (dialysate after dialyzer); 451 nM in series [5] (dialysate before dialyzer, 3 mg/L solution infused at 250 mL/hour, dialysate flow 600 mL/minute); 183 nM in series [5] (saline solution after dialyzer (venous side)). Further, in series [5] (infused between the hemodialysis machine and the dialyzer membrane), the “stability when mixed with dialysate within dialysate tubing (in words)” value was “stable”. Also, in series [6] (30 mg/mL solution, successive addition of hydrochloric acid, detection limit 1 ppm NOx), the “pH at which nitrogen oxides was detected” value came to 6.7. For the same compound, the “initial pH of the sodium nitrite solution” value in series [6] (100 mL solution, 30 mg/mL, before acid addition) came to 8.73. Besides, the “response of the Nitrogen Oxide electrode” value is given as 99.5 mV in series [6] (at pH 4.9) and 8.0 mV in series [6] (at pH 6.7). Further, in series [6] (extent of decomposition generally inversely proportional to the pH), the “stability on exposure to acid (in words)” value is reported as “decomposes when exposed to acid”.
